# Experimental data from patent US20230279379A1, “METHODS AND MICROFLUIDIC DEVICE FOR PRODUCING EXTRACELLULAR VESICLES” (THE BOARD OF TRUSTEES OF THE UNIVERSITY OF ILLINOIS, priority 2022, published 2023).
# “Also recorded” adds a separate entry of the source. Where no end group is shown, it is not given here.
# Test system: Primary human MSCs
# Experiment: EV secretion per cell from MSCs on hydrogel substrates, nanoparticle tracking analysis
# Type: cell-based
# Conditions: for EV secretion vs vehicle: 3 μM MnCl2 during and after adhesion, elastic alginate-RGD hydrogels, soft and stiff
# Experimental: Cell Seeding on Hydrogels. Hydrogel discs were placed in ultra-low binding polystyrene well plates (Corning) to ensure cells attach to hydrogels and not the plate surface. Hydrogels were washed with Hank's buffered salt solution (HBSS, Thermo Fisher Scientific) for at least 3 days before seeding cells. Cells were seeded at a low density (25 cells/mm^2). After seeding, hydrogels were washed thoroughly to remove unattached cells. Drug treatments of 3 μM MnCl2 (Thermo Fisher Scientific), 200 nM EMD 121974 sold under the tradename Cilengitide® (Cayman) and 5 μM CK869 (Cayman) were applied during and after cell adhesion to substrates. To evaluate the number of live cells seeded on substrates, cells were detached by incubating with a natural enzyme mixture with proteolytic and collagenolytic enzyme activity sold under the tradename ACCUTASE® Cell Detachment Solution (Innovative Cell Technologies, Inc.) for 10 minute at 37° C. Cells were then washed by centrifugation and directly added to HBSS containing calcein AM (1:2000; Biotium), ethidium bromide (1:2000; Thermo Fisher Scientific), and a predefined number of allophycocyanin (APC) beads (BD). After incubation at room temperature (RT) for 10 minutes, the samples were analyzed for live and dead cell number by flow cytometry.
# Particle Size and Number Characterization. Particle size and number were obtained using Nanoparticle Tracking Analysis 3.2 (NTA) via NanoSight NS300 (Malvern) using a 405 nm laser. Samples were introduced by syringe pump at a rate 100 μL/min. Three thirty-second videos were acquired using camera level 14 followed by detection threshold 7. Camera focus, shutter, blur, minimum track length, minimum expected particle size and maximum jump length were set automatically by the software. Samples were diluted as needed to maintain particles per video from 100-2000. To ensure specificity, all samples were tested as compared to appropriate blank conditions.
# To test the effect of substrate mechanics on EV secretion from MSCs, hydrogel substrates were engineered which were composed of alginate polymer conjugated with the cell adhesion peptide Arg-Gly-Asp (RGD) that binds primarily to αvβ3 and α5β1 integrins. Alginate-RGD hydrogels can be formed either covalently through adipic acid dihydrazide or physically through divalent cations, resulting in elastic or stress-relaxing hydrogels, respectively. For both types of hydrogels, elastic modulus (Young's modulus, E) of ˜3 kPa ‘soft’ and E ˜20 kPa ‘stiff’ were considered values that represent a physiologically relevant range of substrate elasticity for MSC mechanosensing, while E is ˜0.1 GPa for conventional plastic substrates. Primary human bone marrow MSCs were allowed to adhere to substrates for 24 hours followed by washout and collection of the serum-free conditioned medium from MSCs after 24 hours. After centrifugation of the medium at 10,000 g to remove cell, apoptotic, and larger particle fractions, particles remaining in the medium were analyzed by nanoparticle tracking analysis and normalized to the number of live adhered cells counted by flow cytometry (see Methods). MSCs were seeded at low density (˜25 cells/mm^2) to avoid potential effects from cell-cell interactions. […] Thus, focus was placed on the EVs remaining in the supernatant after the 10,000 g centrifugation. For these EVs, the particle size distribution remained similar across different substrates with median diameter ˜120 nm (FIG. 1B). […] Moreover, EVs from different substrates expressed similar levels of late endosomal markers CD63 and CD9. Importantly, levels of ribosomal RNA (rRNA) in particle preparations were similar across hydrogels or plastic substrates, and rRNA as a percentage of total RNA was lower than that found in untreated MSCs or particles derived from H2O2-treated apoptotic MSCs, ruling out apoptosis as a potential factor of increased EV secretion on the soft hydrogel. […]
compound,measurement,setting,value
Cc1ccc2c(c1)C(=O)C1(O)CCN(c3ccccc3)C1=N2 (stereo not drawn) [blebbistatin],exosome secretion,"50 μM blebbistatin, soft or stiff elastic alginate-RGD hydrogels",did not impact exosome secretion
[Cl][Mn][Cl] [MnCl2],EV secretion vs vehicle,,inhibits EV secretion
same,EV secretion vs vehicle,listed as Mn^2+,decreased to a greater extent on the soft hydrogel than the stiff hydrogel
CC(C)[C@H]1C(=O)N[C@@H](CCCN=C(N)N)C(=O)NCC(=O)N[C@@H](CC(=O)O)C(=O)N[C@H](Cc2ccccc2)C(=O)N1C [EMD 121974],EV secretion,"200 nM EMD 121974 during and after adhesion, soft and stiff hydrogels",significantly increased EV secretion on both soft and stiff hydrogels; also recorded: enhances EV secretion
"RGD: cell adhesion peptide, amino acid sequence GGGGRGDSP (SEQ ID NO:1), conjugated to hydrogel (also: conjugated to hydrogel)",EV secretion on decreasing the amount of RGD conjugated in hydrogels,FIG. 5,significantly increases EV secretion
same,increase in EV secretion per cell,"decreasing RGD concentration from 0.8 to 0.16 mM, both soft and stiff hydrogels",~2 fold
